Results taken from patent publication US8609860B2, “Acid-labile trigger units” (KTB Tumorforschungsgesellschaft mbH, priority 2009, dated 2013).

Tests used:
[1] = buffer
Description: (§1) Half-lives of imine hydrolysis are determined by measuring the decrease of the concentration of the imine and/or the increase of the concentration of the hydrolysis products e.g. by fluorescence methods, HPLC, infrared spectroscopy and/or NMR spectroscopy.
(§2) For example, in the case of compounds comprising above groups Ar and the fluorescent dye AMC (cf. FIG. 3), half-lives of imine hydrolysis are determined by measuring the increase in fluorescence that corresponds to the release of AMC from the model compounds.
(§3) • 200 μL solution per well; • Wavelength: λex=390 nm, λem=460 nm; • Temperature: 37° C.

[2] = Determination of half-lives for the imine hydrolysis in model compounds (AMC release, fluorescence)
Description: as §1, §2, §3

Row | Molecule | t1/2 pH 5.0 (half-life of imine hydrolysis) ([1]; pH 5) [min] | t1/2 pH 7.4 (half-life of imine hydrolysis) ([1]; pH 7.4) [h] | half-life ([2]; acetate buffer, pH 5) [h] | half-life ([2]; phosphate buffer, pH 7.4) [h]
1 | 4-(Perfluorobenzylideneamino)benzyl 4-methylcoumarin-7-ylcarbamate [Compound 6] | 173 | 365 | – | –
2 | Cc1cc(=O)oc2cc(NC(=O)OCc3ccc(N=Cc4ccccc4)cc3)ccc12 [Compound 4, 4-(Benzylideneamino)benzyl 4-methylcoumarin-7-ylcarbamate] | – | – | 0.567 | 8
3 | Cc1cc(=O)oc2cc(NC(=O)OCc3ccc(N=Cc4c(F)c(F)cc(F)c4F)cc3)ccc12 [Compound 5, 4-(2,3,5,6-Tetrafluorobenzylideneamino)benzyl 4-methylcoumarin-7-ylcarbamate] | – | – | 0.567 | 89
